Assay results taken from ChEMBL document CHEMBL1153553, “Pharmacodynamics of RWJ-54428 against Staphylococcus aureus, Streptococcus pneumoniae, and Enterococcus faecalis in a neutropenic mouse thigh infection model” (Antimicrob Agents Chemother, 2008).

Legend:
[1] = fT>MIC in neutropenic Swiss mouse thigh model infected with methicillin-resistant Staphylococcus aureus isolate 604 assessed as static effect on bacterial count reduction at 1.5 to 200 mg/kg, ip administered 2 hrs postinfection measured after 24 hrs; assay type: functional; conditions: dose mg/kg 1.5-200; route intraperitoneal
[2] = fT>MIC in neutropenic Swiss mouse thigh model infected with methicillin-resistant Staphylococcus aureus COL assessed as 1 log reduction of bacterial count at 1.5 to 200 mg/kg, ip administered 2 hrs postinfection measured after 24 hrs; assay type: functional; conditions: dose mg/kg 1.5-200; route intraperitoneal
[3] = fT>MIC in neutropenic Swiss mouse thigh model infected with methicillin-resistant Staphylococcus aureus COL assessed as maximal effect on bacterial count reduction at 1.5 to 200 mg/kg, ip administered 2 hrs postinfection measured after 24 hrs; assay type: functional; conditions: dose mg/kg 1.5-200; route intraperitoneal
Staphylococcus aureus [4] = experiment: Antibacterial activity against methicillin-resistant Staphylococcus aureus isolate 602 after 24 hrs by broth microdilution method; assay type: functional; conditions: isolate 602, 24 h
[5] = fT>MIC in neutropenic Swiss mouse thigh model infected with Streptococcus pneumoniae ATCC 49619 assessed as 2 log reduction of bacterial count at 1.5 to 200 mg/kg, ip administered 2 hrs postinfection measured after 24 hrs; assay type: functional; conditions: dose mg/kg 1.5-200; route intraperitoneal
[6] = fT>MIC in neutropenic Swiss mouse thigh model infected with Enterococcus faecalis ATCC 29212 assessed as static effect on bacterial count reduction at 1.5 to 200 mg/kg, ip administered 2 hrs postinfection measured after 24 hrs; assay type: functional; conditions: dose mg/kg 1.5-200; route intraperitoneal
Enterococcus faecalis [7] = experiment: Antibacterial activity against Enterococcus faecalis infected in neutropenic Swiss mouse thigh model assessed as maximal bactericidal effect per thigh at 1.5 to 200 mg/kg, ip administered 2 hrs of postinfection measured after 24 hrs; assay type: functional; conditions: dose mg/kg 1.5-200; route intraperitoneal
[8] = Clearance with respect to bioavailability in neutropenic Swiss mouse thigh infection model at 100 mg/kg, ip; assay type: ADME, organism-based; conditions: in vivo
[9] = fT>MIC in neutropenic Swiss mouse thigh model infected with penicillin-resistant Streptococcus pneumoniae SP 019 assessed as static effect on bacterial count reduction at 1.5 to 200 mg/kg, ip administered 2 hrs postinfection measured after 24 hrs; assay type: functional; conditions: dose mg/kg 1.5-200; route intraperitoneal
[10] = fT>MIC in neutropenic Swiss mouse thigh model infected with Streptococcus pneumoniae ATCC 49619 assessed as 1 log reduction of bacterial count at 1.5 to 200 mg/kg, ip administered 2 hrs postinfection measured after 24 hrs; assay type: functional; conditions: dose mg/kg 1.5-200; route intraperitoneal
[11] = Tmax in neutropenic Swiss mouse thigh infection model at 100 mg/kg, ip; assay type: ADME, organism-based; set-up: dose 100 mg/kg, route intraperitoneal; conditions: in vivo
[12] = fT>MIC in neutropenic Swiss mouse thigh model infected with Streptococcus pneumoniae ATCC 49619 assessed as static effect on bacterial count reduction at 1.5 to 200 mg/kg, ip administered 2 hrs postinfection measured after 24 hrs; assay type: functional; conditions: dose mg/kg 1.5-200; route intraperitoneal
[13] = AUC in neutropenic Swiss mouse thigh infection model at 20 mg/kg, ip; assay type: ADME, organism-based; set-up: dose 20 mg/kg, route intraperitoneal; conditions: in vivo
Enterococcus faecalis [14] = experiment: Antibacterial activity against Enterococcus faecalis ATCC 29212 after 24 hrs by broth microdilution method; assay type: functional; conditions: ATCC 29212, 24 h
[15] = fT>MIC in neutropenic Swiss mouse thigh model infected with penicillin-resistant Streptococcus pneumoniae SP 019 assessed as 1 log reduction of bacterial count at 1.5 to 200 mg/kg, ip administered 2 hrs postinfection measured after 24 hrs; assay type: functional; conditions: dose mg/kg 1.5-200; route intraperitoneal
[16] = fT>MIC in neutropenic Swiss mouse thigh model infected with Enterococcus faecalis ATCC 29212 assessed as 1 log reduction of bacterial count at 1.5 to 200 mg/kg, ip administered 2 hrs postinfection measured after 24 hrs; assay type: functional; conditions: dose mg/kg 1.5-200; route intraperitoneal
Enterococcus faecalis [17] = experiment: Antibacterial activity against Enterococcus faecalis EFS 007 after 24 hrs by broth microdilution method; assay type: functional; conditions: EFS 007, 24 h
[18] = Tmax in neutropenic Swiss mouse thigh infection model at 20 mg/kg, ip; assay type: ADME, organism-based; set-up: dose 20 mg/kg, route intraperitoneal; conditions: in vivo
[19] = fT>MIC in neutropenic Swiss mouse thigh model infected with methicillin-resistant Staphylococcus aureus isolate 609 assessed as static effect on bacterial count reduction at 1.5 to 200 mg/kg, ip administered 2 hrs postinfection measured after 24 hrs; assay type: functional; conditions: dose mg/kg 1.5-200; route intraperitoneal
[20] = fT>MIC in neutropenic Swiss mouse thigh model infected with methicillin-resistant Staphylococcus aureus isolate 609 assessed as maximal effect on bacterial count reduction at 1.5 to 200 mg/kg, ip administered 2 hrs postinfection measured after 24 hrs; assay type: functional; conditions: dose mg/kg 1.5-200; route intraperitoneal
[21] = fT>MIC in neutropenic Swiss mouse thigh model infected with Enterococcus faecalis EFS 007 assessed as 1 log reduction of bacterial count at 1.5 to 200 mg/kg, ip administered 2 hrs postinfection measured after 24 hrs; assay type: functional; conditions: dose mg/kg 1.5-200; route intraperitoneal
[22] = Protein binding in neutropenic Swiss mouse thigh infection model serum at 20 mg/kg, ip by ultrafiltration; assay type: ADME, organism-based; set-up: dose 20 mg/kg, route intraperitoneal; conditions: read-out: PB (converted)
[23] = fT>MIC in neutropenic Swiss mouse thigh model infected with Enterococcus faecalis EFS 007 assessed as static effect on bacterial count reduction at 1.5 to 200 mg/kg, ip administered 2 hrs postinfection measured after 24 hrs; assay type: functional; conditions: dose mg/kg 1.5-200; route intraperitoneal
[24] = Apparent volume of distribution with respect to bioavailability in neutropenic Swiss mouse thigh infection model at 20 mg/kg, ip; assay type: ADME, organism-based; conditions: in vivo, read-out: Vc/F
[25] = Half life in neutropenic Swiss mouse thigh infection model at 20 mg/kg, ip; assay type: ADME, organism-based; set-up: dose 20 mg/kg, route intraperitoneal; conditions: in vivo
Streptococcus pneumoniae [26] = experiment: Antibacterial activity against penicillin-resistant Streptococcus pneumoniae SP 019 after 24 hrs by broth microdilution method; assay type: functional; conditions: SP 019, 24 h
Staphylococcus aureus [27] = experiment: Antibacterial activity against methicillin-resistant Staphylococcus aureus isolate 604 after 24 hrs by broth microdilution method; assay type: functional; conditions: isolate 604, 24 h
[28] = fT>MIC in neutropenic Swiss mouse thigh model infected with methicillin-resistant Staphylococcus aureus COL assessed as static effect on bacterial count reduction at 1.5 to 200 mg/kg, ip administered 2 hrs postinfection measured after 24 hrs; assay type: functional; conditions: dose mg/kg 1.5-200; route intraperitoneal
[29] = Clearance with respect to bioavailability in neutropenic Swiss mouse thigh infection model at 20 mg/kg, ip; assay type: ADME, organism-based; conditions: in vivo
Streptococcus pneumoniae [30] = experiment: Antibacterial activity against Streptococcus pneumoniae infected in neutropenic Swiss mouse thigh model assessed as maximal bactericidal effect per thigh at 1.5 to 200 mg/kg, ip administered 2 hrs of postinfection measured after 24 hrs; assay type: functional; conditions: dose mg/kg 1.5-200; route intraperitoneal
[31] = Cmax in neutropenic Swiss mouse thigh infection model at 20 mg/kg, ip; assay type: ADME, organism-based; set-up: dose 20 mg/kg, route intraperitoneal; conditions: in vivo
[32] = Apparent volume of distribution with respect to bioavailability in neutropenic Swiss mouse thigh infection model at 100 mg/kg, ip; assay type: ADME, organism-based; conditions: in vivo, read-out: Vc/F
[33] = fT>MIC in neutropenic Swiss mouse thigh model infected with Enterococcus faecalis EFS 007 assessed as maximal effect on bacterial count reduction at 1.5 to 200 mg/kg, ip administered 2 hrs postinfection measured after 24 hrs; assay type: functional; conditions: dose mg/kg 1.5-200; route intraperitoneal
Staphylococcus aureus [34] = experiment: Antibacterial activity against methicillin-resistant Staphylococcus aureus 076 after 24 hrs by broth microdilution method; assay type: functional; conditions: Staphylococcus aureus, 076, 24 h
Staphylococcus aureus [35] = experiment: Antibacterial activity against methicillin-resistant Staphylococcus aureus COL after 24 hrs by broth microdilution method; assay type: functional
[36] = fT>MIC in neutropenic Swiss mouse thigh model infected with Enterococcus faecalis ATCC 29212 assessed as maximal effect on bacterial count reduction at 1.5 to 200 mg/kg, ip administered 2 hrs postinfection measured after 24 hrs; assay type: functional; conditions: dose mg/kg 1.5-200; route intraperitoneal
Staphylococcus aureus [37] = experiment: Antibacterial activity against methicillin-resistant Staphylococcus aureus infected in neutropenic Swiss mouse thigh model assessed as maximal bactericidal effect per thigh at 1.5 to 200 mg/kg, ip administered 2 hrs of postinfection measured after 24 hrs; assay type: functional; conditions: dose mg/kg 1.5-200; route intraperitoneal
[38] = Cmax in neutropenic Swiss mouse thigh infection model at 100 mg/kg, ip; assay type: ADME, organism-based; set-up: dose 100 mg/kg, route intraperitoneal; conditions: in vivo
[39] = Half life in neutropenic Swiss mouse thigh infection model at 100 mg/kg, ip; assay type: ADME, organism-based; set-up: dose 100 mg/kg, route intraperitoneal; conditions: in vivo
[40] = fT>MIC in neutropenic Swiss mouse thigh model infected with methicillin-resistant Staphylococcus aureus 076 assessed as maximal effect on bacterial count reduction at 1.5 to 200 mg/kg, ip administered 2 hrs postinfection measured after 24 hrs; assay type: functional; conditions: dose mg/kg 1.5-200; route intraperitoneal
Staphylococcus aureus [41] = experiment: Antibacterial activity against methicillin-resistant Staphylococcus aureus isolate 609 after 24 hrs by broth microdilution method; assay type: functional; conditions: isolate 609, 24 h
[42] = fT>MIC in neutropenic Swiss mouse thigh model infected with methicillin-resistant Staphylococcus aureus isolate 602 assessed as 1 log reduction of bacterial count at 1.5 to 200 mg/kg, ip administered 2 hrs postinfection measured after 24 hrs; assay type: functional; conditions: dose mg/kg 1.5-200; route intraperitoneal
[43] = Protein binding in neutropenic Swiss mouse thigh infection model serum at 100 mg/kg, ip by ultrafiltration; assay type: ADME, organism-based; set-up: dose 100 mg/kg, route intraperitoneal; conditions: read-out: PB (converted)
Streptococcus pneumoniae [44] = experiment: Antibacterial activity against Streptococcus pneumoniae ATCC 49619 after 24 hrs by broth microdilution method; assay type: functional; conditions: ATCC 49619, 24 h
[45] = AUC in neutropenic Swiss mouse thigh infection model at 100 mg/kg, ip; assay type: ADME, organism-based; set-up: dose 100 mg/kg, route intraperitoneal; conditions: in vivo
[46] = fT>MIC in neutropenic Swiss mouse thigh model infected with methicillin-resistant Staphylococcus aureus isolate 602 assessed as maximal effect on bacterial count reduction at 1.5 to 200 mg/kg, ip administered 2 hrs postinfection measured after 24 hrs; assay type: functional; conditions: dose mg/kg 1.5-200; route intraperitoneal
[47] = fT>MIC in neutropenic Swiss mouse thigh model infected with methicillin-resistant Staphylococcus aureus 076 assessed as static effect on bacterial count reduction at 1.5 to 200 mg/kg, ip administered 2 hrs postinfection measured after 24 hrs; assay type: functional; conditions: dose mg/kg 1.5-200; route intraperitoneal
[48] = fT>MIC in neutropenic Swiss mouse thigh model infected with Streptococcus pneumoniae ATCC 49619 assessed as maximal effect on bacterial count reduction at 1.5 to 200 mg/kg, ip administered 2 hrs postinfection measured after 24 hrs; assay type: functional; conditions: dose mg/kg 1.5-200; route intraperitoneal
[49] = fT>MIC in neutropenic Swiss mouse thigh model infected with methicillin-resistant Staphylococcus aureus isolate 602 assessed as static effect on bacterial count reduction at 1.5 to 200 mg/kg, ip administered 2 hrs postinfection measured after 24 hrs; assay type: functional; conditions: dose mg/kg 1.5-200; route intraperitoneal

CS(=O)(=O)O.NCCSCc1cnccc1SC1=C(C(=O)O)N2C(=O)[C@@H](NC(=O)/C(=N\O)c3nc(N)sc3Cl)[C@H]2SC1
fT>MIC [1]: 20%
fT>MIC [2]: 20%
fT>MIC [3]: 36%
MIC (Staphylococcus aureus [4]): 0.5 mg/L
fT>MIC [5]: 23%
fT>MIC [6]: 30%
log10cfu (Enterococcus faecalis [7]): -1.65
CL/F [8]: 0.9 L/h/kg
fT>MIC [9]: 16%
fT>MIC [10]: 21%
Tmax [11]: 15.6 min
fT>MIC [12]: 18%
AUC [13]: 16.6 µg·h/mL
MIC (Enterococcus faecalis [14]): 0.06 mg/L
fT>MIC [15]: 22%
fT>MIC [16]: 48%
MIC (Enterococcus faecalis [17]): 0.125 mg/L
Tmax [18]: 5.4 min
fT>MIC [19]: 16%
fT>MIC [20]: 22%
fT>MIC [21]: 56%
fraction unbound [22]: 0.4
fT>MIC [23]: 46%
Vd/F [24]: 0.3 L/kg
half-life [25]: 10.2 min
MIC (Streptococcus pneumoniae [26]): 0.5 mg/L
MIC (Staphylococcus aureus [27]): 0.5 mg/L
fT>MIC [28]: 14%
CL/F [29]: 1.2 L/h/kg
log10cfu (Streptococcus pneumoniae [30]): -3.75
Cmax [31]: 47.3 µg/mL
Vd/F [32]: 0.44 L/kg
fT>MIC [33]: 60%
MIC (Staphylococcus aureus [34]): 1 mg/L
MIC (Staphylococcus aureus [35]): 1 mg/L
fT>MIC [36]: 60%
log10cfu (Staphylococcus aureus [37]): -2.83
Cmax [38]: 133 µg/mL
half-life [39]: 19.8 min
fT>MIC [40]: 32%
MIC (Staphylococcus aureus [41]): 0.5 mg/L
fT>MIC [42]: 20%
fraction unbound [43]: 0.4
MIC (Streptococcus pneumoniae [44]): 0.03 mg/L
AUC [45]: 108 µg·h/mL
fT>MIC [46]: 24%
fT>MIC [47]: 16%
fT>MIC [48]: 28%
fT>MIC [49]: 17%
